Experiment [1] concerns maximum electroshock seizure (MES) model. The experiment in a line: Maximum electroshock seizure (MES) model test. Format: in vivo, mice. As to conditions: for responders at 50 mg/kg / responders at 100 mg/kg: Mus musculus, po, 1 h, Slc: ddY male mice, 3 per group, electrical stimulation 1 hour after administration, inhibition of hind limb extension, read-out: MES (positive number/tested number) (converted); for responders at 50 mg/kg: 50 mg/kg oral; for responders at 100 mg/kg: 100 mg/kg oral; for anticonvulsant action in maximum electroshock seizure (MES) model test: mice, oral 50 or 100 mg/kg, 1 hour after administration. The essentials: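 Tonic hind-limb extension was elicited by corneal electroshock (60 Hz, 25 mA, 0.2 s) 1 h after oral dosing. Test compounds were given at 50 or 100 mg/kg to groups of 3 male Slc: ddY mice (20-30 g), vehicle controls receiving 0.5% tragacanth or 0.5% methylcellulose solution.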

Experiment [2] relates to subcutaneously pentetrazol-injected model (scPTZ). The experiment in a line: Subcutaneously pentetrazol-injected model (scPTZ) test. Type of experiment: in vivo, mice. Conditions: pentetrazol 85 mg/kg s.c. after 1 hour; for responders at 100 mg/kg / responders at 50 mg/kg: Mus musculus, po, 1 h, Slc: ddY male mice, 3 per group, observed 30 minutes for clonic convulsion, read-out: scPTZ (positive number/tested number) (converted); for responders at 100 mg/kg: 100 mg/kg oral; for responders at 50 mg/kg: 50 mg/kg oral; for anticonvulsant action in subcutaneously pentetrazol-injected model (scPTZ) test: mice, oral 50 or 100 mg/kg. The essentials: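 Pentetrazol (85 mg/kg, s.c.) was injected one hour after oral test compound at 50 or 100 mg/kg in groups of three male Slc:ddY mice weighing 20-30 g; vehicle controls got 0.5% tragacanth or 0.5% methylcellulose.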

In the case of `CNC(=O)Cc1ccc(F)cc1-c1cccc(F)c1` [Example 121], in experiment [1], the responders at 50 mg/kg was 0% and the responders at 100 mg/kg is 100%. Moreover, the responders at 100 mg/kg in experiment [2] is 33.3%.
With `NC(=O)Cc1ccc(F)cc1-c1ccc(F)cc1` [Example 122], the responders at 100 mg/kg in experiment [1] is 0%. Also, in experiment [2], the responders at 50 mg/kg is 0% and the responders at 100 mg/kg is 66.7%.
For `NC(=O)Cc1ccc(Cl)cc1-c1ccccc1` [Example 123], the responders at 100 mg/kg was 100% in experiment [1] and 33.3% in experiment [2].
Consider `CNC(=O)Cc1ccc(Cl)cc1-c1ccccc1` [Example 124, 2-(5-chlorobiphenyl-2-yl)-N-methylacetamide], for which, in experiment [1], the responders at 50 mg/kg was 0% and the responders at 100 mg/kg was 100%. In experiment [2], the responders at 50 mg/kg is 0% and the responders at 100 mg/kg is 100%.
Regarding `NC(=O)Cc1ccc(Cl)cc1-c1ccccc1F` [Example 125, 2-(5-chloro-2′-fluorobiphenyl-2-yl)acetamide], in experiment [1], the responders at 50 mg/kg was 66.7% and the responders at 100 mg/kg was 100%. In addition, in experiment [2], the responders at 50 mg/kg is 33.3% and the responders at 100 mg/kg was 66.7%.
On to `CNC(=O)Cc1ccc(Cl)cc1-c1ccccc1F` [Example 126, 2-(5-chloro-2′-fluorobiphenyl-2-yl)-N-methylacetamide], for which the responders at 50 mg/kg was 0% in experiment [1] and 66.7% in experiment [2]. For the same compound, the responders at 100 mg/kg in experiment [1] is 66.7%; in experiment [2] it was 100%.
In the case of `NC(=O)Cc1ccc(Cl)cc1-c1cccc(Cl)c1` [Example 127], the responders at 100 mg/kg in experiment [1] was 66.7%; in experiment [2] it was 33.3%.
On to `CNC(=O)Cc1ccc(Cl)cc1-c1cccc(Cl)c1` [Example 128], for which the responders at 100 mg/kg was 66.7% in experiment [1] and 0% in experiment [2].
The matching figures for `NC(=O)Cc1cc(Cl)ccc1-c1ccc(F)cc1` [Example 129]: 100% and 33.3%.
The matching figures for `CNC(=O)Cc1cc(Cl)ccc1-c1ccc(F)cc1` [Example 130]: 100% and 0%.
On the same counts, the results for `NC(=O)Cc1cc(F)ccc1-c1ccc(Cl)cc1` [Example 131] are 100% and 0%.
`CNC(=O)Cc1cc(F)ccc1-c1ccc(Cl)cc1` [Example 132]: the responders at 100 mg/kg is 100% in experiment [1] and 0% in experiment [2].
On the same counts, the results for `NC(=O)Cc1cc(F)ccc1-c1cccc(F)c1` [Example 133] are 100% and 33.3%.
Consider `CNC(=O)Cc1cc(F)ccc1-c1cccc(F)c1` [Example 134], for which the results for the responders at 100 mg/kg in experiment [1] and in experiment [2] were 100% and 0%, respectively.
The matching figures for `NC(=O)Cc1cc(F)ccc1-c1ccc(C(F)(F)F)cc1` [Example 135]: 100% and 0%.
On the same counts, the results for `CNC(=O)Cc1cc(F)ccc1-c1ccc(C(F)(F)F)cc1` [Example 136] are 100% and 0%.
On the same counts, the results for `NC(=O)Cc1cc(C(F)(F)F)ccc1-c1ccc(Cl)cc1` [Example 137] are 0% and 66.7%.
In the case of `CNC(=O)Cc1cc(C(F)(F)F)ccc1-c1ccc(Cl)cc1` [Example 138], the responders at 100 mg/kg is 0% in experiment [1] and 66.7% in experiment [2].
As for `NC(=O)Cc1cc(Cl)ccc1-c1cccc(F)c1` [Example 139], the responders at 100 mg/kg in experiment [1] was 66.7%; in experiment [2] it was 33.3%.
In the case of `NC(=O)Cc1c(F)cccc1-c1cccc(F)c1` [Example 140, 2-(3,3′-difluorobiphenyl-2-yl)acetamide], in experiment [1], the responders at 50 mg/kg is 100%, the responders at 100 mg/kg is 100% and the “anticonvulsant action in maximum electroshock seizure (MES) model test” value was “anticonvulsant action was observed”. Also, in experiment [2], the responders at 50 mg/kg was 66.7%, the responders at 100 mg/kg was 66.7% and the “anticonvulsant action in subcutaneously pentetrazol-injected model (scPTZ) test” value is “anticonvulsant action was observed”.
Consider `CNC(=O)Cc1c(F)cccc1-c1cccc(F)c1` [Example 141], for which the responders at 100 mg/kg in experiment [1] was 66.7%; in experiment [2] it was 0%.
As for `NC(=O)Cc1cc(Cl)ccc1-c1ccc(C(F)(F)F)cc1` [Example 142, 2-[4-chloro-4′-(trifluoromethyl)biphenyl-2-yl]acetamide], in experiment [1], the responders at 50 mg/kg is 33.3% and the responders at 100 mg/kg was 66.7%. Also, in experiment [2], the responders at 50 mg/kg was 100% and the responders at 100 mg/kg is 66.7%.
For `CNC(=O)Cc1cc(Cl)ccc1-c1ccc(C(F)(F)F)cc1` [Example 143], the responders at 100 mg/kg is 0% in experiment [1] and 100% in experiment [2].
Turning to `NC(=O)Cc1cc(C(F)(F)F)ccc1-c1cccc(F)c1` [Example 144], the figures for the responders at 100 mg/kg in experiment [1] and in experiment [2] were 33.3% and 66.7%, respectively.
Regarding `CC(C)(C)NC(=O)Cc1ccccc1-c1ccccc1F` [Example 145], the responders at 100 mg/kg in experiment [1] was 0%; in experiment [2], 33.3%.
As to `CNC(=O)Cc1cc(F)c(F)cc1-c1cccc(F)c1` [Example 148], the responders at 100 mg/kg in experiment [1] was 0%; in experiment [2], 33.3%.
Regarding `NC(=O)Cc1ccc(C(F)(F)F)cc1-c1cccc(F)c1` [Example 149, 2-[3′-fluoro-5-(trifluoromethyl)biphenyl-2-yl]acetamide], in experiment [1], the responders at 50 mg/kg is 33.3% and the responders at 100 mg/kg was 66.7%. Besides, in experiment [2], the responders at 50 mg/kg is 0% and the responders at 100 mg/kg was 66.7%.
In the case of `NC(=O)Cc1ccc(F)cc1-c1cc(Cl)cc(Cl)c1` [Example 150, 2-(3′,5′-dichloro-5-fluorobiphenyl-2-yl)acetamide], in experiment [1], the responders at 50 mg/kg was 100% and the responders at 100 mg/kg was 100%. Further, in experiment [2], the responders at 50 mg/kg was 33.3% and the responders at 100 mg/kg is 100%.
Take `CNC(=O)Cc1ccc(F)cc1-c1cc(Cl)cc(Cl)c1` [Example 151]: the values for the responders at 100 mg/kg in experiment [1] and in experiment [2] were 66.7% and 0%, respectively.
In the case of `NC(=O)Cc1ccccc1-c1cc(F)ccc1F` [Example 152, 2-(2′,5′-difluorobiphenyl-2-yl)acetamide], in experiment [1], the responders at 50 mg/kg was 100%, the responders at 100 mg/kg is 100% and the “anticonvulsant action in maximum electroshock seizure (MES) model test” value is recorded as “anticonvulsant action was observed”. Also, in experiment [2], the responders at 50 mg/kg is 66.7%, the responders at 100 mg/kg was 100% and the “anticonvulsant action in subcutaneously pentetrazol-injected model (scPTZ) test” value is reported as “anticonvulsant action was observed”.
For `NC(=O)Cc1ccccc1-c1cc(F)cc(F)c1` [Example 153, 2-(3′,5′-difluorobiphenyl-2-yl)acetamide], the responders at 50 mg/kg in experiment [1] and in experiment [2] was 0% throughout. Besides, the responders at 100 mg/kg in experiment [1] was 66.7%; in experiment [2], 100%.
As for `NC(=O)Cc1ccccc1-c1ccc(F)cc1F` [Example 154], in experiment [1], the responders at 50 mg/kg was 33.3% and the responders at 100 mg/kg is 100%. Further, in experiment [2], the responders at 100 mg/kg is 33.3%.
`NC(=O)C1(c2ccccc2-c2ccccc2)CC1` [Example 155]: in experiment [1], the responders at 100 mg/kg is 0%. Also, in experiment [2], the responders at 50 mg/kg was 0% and the responders at 100 mg/kg is 66.7%.
On to `CNC(=O)C1(c2ccccc2-c2ccccc2)CC1` [Example 156], for which, in experiment [1], the responders at 50 mg/kg is 0%. Besides, the responders at 100 mg/kg is 100% in experiment [1] and 33.3% in experiment [2].
With `CNC(=O)C1(c2ccccc2-c2ccccc2F)CC1` [Example 157, 1-(2′-fluorobiphenyl-2-yl)-N-methyl-cyclopropane-carboxamide], the responders at 50 mg/kg in experiment [1] was 33.3%; in experiment [2] it was 66.7%. Besides, the responders at 100 mg/kg in experiment [1] is 100%; in experiment [2] it was 66.7%.
Consider `NC(=O)C1(c2ccccc2-c2cccc(F)c2)CC1` [Example 158], for which the responders at 100 mg/kg in experiment [1] was 0%; in experiment [2], 66.7%.
Turning to `CNC(=O)C1(c2ccccc2-c2cccc(F)c2)CC1` [Example 159, 1-(3′-fluorobiphenyl-2-yl)-N-methyl-cyclopropane-carboxamide], the responders at 50 mg/kg in experiment [1] and in experiment [2] was 33.3% in each case. For the same compound, the responders at 100 mg/kg in experiment [1] and in experiment [2] was 66.7% throughout.
With `NC(=O)C(F)c1ccccc1-c1cccc(F)c1` (stereo not drawn) [Example 160, 2-fluoro-2-(3′-fluorobiphenyl-2-yl)acetamide], in experiment [1], the responders at 50 mg/kg is 33.3% and the responders at 100 mg/kg was 66.7%. In experiment [2], the responders at 50 mg/kg is 66.7% and the responders at 100 mg/kg is 100%.
As to `CNC(=O)C(F)c1ccccc1-c1cccc(F)c1` (stereo not drawn) [Example 161], the responders at 100 mg/kg in experiment [1] was 66.7%; in experiment [2] it was 0%.
